Reference: US10753892B2, “Non-invasive sensing of free metal ions using ion chemical exchange saturation transfer” (The Johns Hopkins University, priority 2013, dated 2020)
“And” between values parts separate entries of the source, which are not always exact repeats. Identical values can stand only once. “Also recorded” adds a separate entry of the source. Marks after values point to notes of the source that are not given here. Blank lines part the entries; values can stand above or below the molecule they belong to.

What was measured:
[1] = 19F-iCEST MRI of 5F-BAPTA with Ca2+ (16.4 T, 37° C.), Bloch simulations; type: binding
Protocol: (§1) 5F-BAPTA was dissolved in Hepes buffer (40 mM) to a final concentration of 10 mM and the pH was adjusted to the following values: 5.6, 6.0, 6.4, 6.8, 7.0, 7.2, and 7.6. Stock 10 mM solutions of CaCl2, MgCl2, and ZnCl2 were prepared in 40 mM Hepes buffer. Five μL of the stock solution was added to 1 mL of 10 mM 5F-BAPTA resulting in a 200:1 ratio (10 mM: 50 μM) between the free 5F-BAPTA and the M^2+ ion following by a pH adjustment. One mL of each sample (with adjusted pH) was transferred into a 8 mm NMR tube within a 25 mm NMR tube in order to center the sample in the coil for the MRI experiments.
(§2) MRI experiments were performed on a vertical 16.4 T scanner (Bruker Avance system) at 37° C. A 25 mm birdcage radiofrequency coil was used to acquire both ^1H and ^19F MR images by sweeping the coil frequency from proton (700 MHz) to fluorine (658.8 MHz) frequency.
(§3) The saturation transfer effect on the free 5F-BAPTA, i.e., the MTR or iCEST, was calculated for each voxel in the image by using a Lorentzian line shape fitting as described in Jones et al. (Magn Reson Med 2012, 67, 1579), and Liu et al. (Molecular imaging 2012, 11, 47).
(§4) Numerical solutions to the six Bloch equations including direct saturation of free 5F-BAPTA were obtained as described previously (McMahon, M. T. et al., Magnetic Resonance in Medicine 2006, 55, 836). The relaxation parameters for ^19F used in the Bloch equations were R1=1/T1 with bound calcium (Rib)=0.71 s^−1, R2 bound calcium (R2b)=29 s^−1, whereas the R1 and R2 values of free 5F-BAPTA (R1f and R2f) were determined experimentally through inversion-recovery and saturation-recovery experiments as a function of pH on solutions containing 20 mM 5F-BAPTA as listed in Table 1 as follows:
(§5) Saturation time (tsat) was either 1500 ms to 2000 ms as indicated in the text.
An aqueous solution containing 0.5 mM of 5F-BAPTA and 500 nM in Hepes buffer (40 mM, pH=7.2) was transferred into a 20 mm NMR tube, which was located within a 25 mm NMR tube in order to centralize the sample in the coil for the MRI experiment. The same parameters used for ^19F-iCEST experiments were used except the followings: TR=3000 ms, RARE=8, FOV=6.0 cm (resolution=1.875×1.875 mm), and 168 averages.

[2] = 19F-iCEST MRI of 5F-BAPTA with Zn2+ (16.4 T, 37° C.); type: binding; conditions: 10 mM 5F-BAPTA, 50 μM Zn2+, pH 7.2 and 6.4
Protocol: as §1, §2, §3, §5

[3] = 19F-iCEST MRI of 5F-BAPTA with Mg2+ (16.4 T, 37° C.); type: binding
Protocol: as §1, §2, §3, §5

[4] = Relaxation times T1 and T2 of free 5F-BAPTA as a function of pH; type: physicochemical; conditions: free 5F-BAPTA 20 mM
Protocol: The same image geometry as in the ^19F-CEST experiments was used for the determination of T1 and T2 of the imaged samples. For T1 measurements, a saturation recovery experiment was performed with TR values of 61, 214, 395, 615, 899, 1296 1964, and 4961 ms. A spin-echo experiment (TR=5000 ms) with multiple echoes was performed with variable echo times (TE=5, 10 15, 20, 25, 30, 35, and 40 ms) to determine the T2 value of each sample.
as §4, with “follows: […]” for “follows:”

[5] = 19F-CEST experiments with 5F-BAPTA at pH 7.0 (11.7 T NMR, 16.4 T MRI); type: binding; conditions: 10 mM 5F-BAPTA, 100 μM M2+, saturation at Δω=5.8 ppm
Protocol: ^19F-CEST experiments were performed on solutions containing 1,2-Bis-[2-bis(carboxymethyl)amino-5-fluorophenoxy]ethane (5F-BAPTA), with and without divalent cations (M^2+).
Experiments were performed on an 11.7T NMR spectrometer (Bruker). 5F-BAPTA (AnaSpec, Inc.) was dissolved in 40 mM HEPES buffer (pH=7.0) to a concentration of 5 mM, and CaCl2 was dissolved to a final Ca^2+ concentration of 50 μm.
^19F-CEST spectra (z-spectra) were acquired with a saturation transfer sequence consisting of a saturation pulse (B1=4.7 μT, 4 sec) with variable offset (from −7.5 to +7.5 ppm relative to the 5FBAPTA frequency set at 0 ppm). Experiments were performed without (room temperature, RT) and with sample heating (37° C.). The MTRasym=100×(S−Δω−S+Δω)/S0 was computed at different offsets Δω, where S0 is the 5F-BAPTA signal without saturation.
Imaging experiments were performed on a 16.4T MRI scanner (Bruker). 5F-BAPTA was dissolved to 10 mM in 40 mM HEPES, pH=7.0, with or without 100 μM of M^2+ (Mg^2+, Zn^2+, or Ca^2+).
^19F-CEST images were acquired using a continuous wave presaturation pulse (B1=3.6 μT, 3 sec) followed by a multi-echo MRI pulse sequence (RARE, rare factor 4, TR/TE=6000/10 ms). FOV of 4×4 cm, matrix 32×32 and slice thickness 10 mm. Mean ^19F-CEST spectra were derived after B0 correction for each voxel using MatLab. MTRasym plots and maps were calculated.

[6] = Relaxation times T1 and T2 of free 5F-BAPTA as a function of pH; type: physicochemical; conditions: pH 5.6, estimated from the Bloch equation fitting
[7] = cited from earlier work
[8] = Bloch simulations, two pool model
Protocol: (§6) Experiments were performed on solutions containing TF-BAPTA and multiple biologically relevant metal ions (K^+, Na^+, Ca^2+, Mg^2+, Cu^2+, Fe^2+ and Zn^2+) at 37° C. and pH=7.4. MR Spectroscopy as follows: TF-BAPTA was dissolved to a final concentration of 5 mM, and ions were add at 500 μM. Using 5-Fluorocytosine (5-FC) as an internal ^19F reference, ^19F-NMR spectra were acquired (11.7 T NMR spectrometer, Bruker). MRI: Experiments were performed on a 17.6 T MRI scanner (Bruker). TF-BAPTA was dissolved to 10 mM with 200″ AM of ion. A RARE (factor 8) sequence was used to acquire 1H MRI (TR/TE=5,000/7.7 ms, 1 mm slice, FOV=2×2 cm, matrix size=128×128). For ^19F MRI, the center frequency (O1) was set at the frequency of the 19F atom at the 6 position (0.0 ppm) of TF-BAPTA (FIG. 1a), while signal from the ^19F located at the 5 position of TF-BAPTA (FIG. 1a-b, 4.5 ppm downfield) was suppressed. A modified RARE sequence (TR/TE=4,000/3.4 ms, RARE factor=16, 6 mm slice, FOV=2×2 cm, matrix size=32×32, and a saturation pulse B1=1.2, 2.4 or 3.6 ItT/2 s) were used to acquire ^19F iCEST. Mean ^19F Z-spectra (iCEST spectra), were obtained after B0 correction. CEST contrasts, i.e., the magnetization transfer ratio (MTR) images were calculated after Lorentzian line shape fitting.

[9] = Bloch simulations, two pool model; remark: listed apart in the source
Protocol: as §6

[10] = London et al., 1994; cited from earlier work

T1 ([4]; pH 5.6): 715 ms
T1 ([4]; pH 6.0): 715 ms
T2 ([4]; pH 6.0): 10 ms
T1 ([4]; pH 6.4): 715 ms
T2 ([4]; pH 6.4): 11 ms
T1 ([4]; pH 6.8): 715 ms
T2 ([4]; pH 6.8): 25 ms
T1 ([4]; pH 7.0): 715 ms
T2 ([4]; pH 7.0): 32 ms
T1 ([4]; pH 7.2): 715 ms
T2 ([4]; pH 7.2): 38 ms
T1 ([4]; pH 7.6): 715 ms
T2 (ms) [6]: 6^a ms
SMILES: O=C(O)CN(CC(=O)O)c1ccc(F)cc1OCCOc1cc(F)ccc1N(CC(=O)O)CC(=O)O [5F-BAPTA, 2,2′,2″,2′″-(2,2′-(Ethane-1,2-diylbis(oxy))bis(4-fluoro-2,1-phenylene))bis(azanetriyl)tetraacetic acid]
Ca2+ concentration detected by iCEST ([1]; 0.5 mM 5F-BAPTA, pH 7.2): 500 nM
iCEST (saturation transfer) contrast, Ca2+ containing sample ([1]; 10 mM 5F-BAPTA, 50 μM Ca2+, pH 7.2 and 6.4, B1=3.6 μT/2000 ms): pronounced saturation transfer contrast was detected; also recorded: large iCEST contrast was detected
kex between [Ca-5F-BAPTA] and 5F-BAPTA ([1]; Bloch simulations, all examined pH values): 190 s⁻¹ and 190 ± 10 s⁻¹
Ca2+ specificity in a Zn2+ background ([1]; iCEST, FIGS. 13a-c): high Ca^2+ specificity
Ca2+ specificity in a Mg2+ background ([1]; iCEST, FIGS. 14a-c): high Ca^2+ specificity
amplification factor for Ca2+ ([1]; iCEST, kex 190 s−1): ~100
iCEST contrast in the Z-spectrum ([1]; χCa=1:1000, 5 mM 5F-BAPTA, pH 7.2): ~11%
iCEST contrast, Zn2+ containing sample [2]: did not generate iCEST contrast
iCEST contrast, Mg2+ containing sample ([3]; 10 mM 5F-BAPTA, 50 μM Mg2+, pH 7.2 and 6.4): did not generate iCEST contrast
amplification factor for Mg2+ ([3]; iCEST, FIG. 10b): 10
19F-CEST MRI contrast among tubes with no M2+, Mg2+, Zn2+ or Ca2+ [5]: only the Ca^2+ containing solution generated contrast

SMILES: O=C(O)CN(CC(=O)O)c1ccccc1OCCOc1ccccc1N(CC(=O)O)CC(=O)O [BAPTA, 1,2-bis(o-aminophenoxy)ethane-N,N,N′,N′-tetraacetic acid]
iCEST contrast produced by Ca2+ in mixtures ([1]; 50 μM Ca2+ with 200 μM Mg2+ or 50 μM Zn2+, 10 mM chelate, pH 7.2, Δω=6 ppm): ~22%
selectivity for Ca2+ over Mg2+ [7]: > 10^5

SMILES: O=C(O)CN(CC(=O)O)c1cc(F)c(F)cc1OCCOc1cc(F)c(F)cc1N(CC(=O)O)CC(=O)O [TF-BAPTA, 5,5′, 6,6′-tetrafluoro-BAPTA]
exchange rate (kex) between free and Zn2+-bound TF-BAPTA [8]: ~20 s⁻¹
exchange rate (kex) between free and Fe2+-bound TF-BAPTA [9]: ~20 s⁻¹
exchange rate of Ca2+ with TF-BAPTA [10]: ~30,000 s−1
